The results in this text go back to ChEMBL document CHEMBL4118233, “Rational design of bis-indolylmethane-oxadiazole hybrids as inhibitors of thymidine phosphorylase” (Bioorg Med Chem, 2018).

For orientation: IC50 means the midpoint of a concentration-inhibition curve.

The target in the first assay is Thymidine phosphorylase (Escherichia coli K-12, UniProt P07650). Kind of assay: Inhibition of Escherichia coli thymidine phosphorylase pretreated for 10 mins followed by substrate addition measured at 10 mins interval for 30 mins by spectrophotometric method.
Thymidine phosphorylase, sequence (P07650 whole entry): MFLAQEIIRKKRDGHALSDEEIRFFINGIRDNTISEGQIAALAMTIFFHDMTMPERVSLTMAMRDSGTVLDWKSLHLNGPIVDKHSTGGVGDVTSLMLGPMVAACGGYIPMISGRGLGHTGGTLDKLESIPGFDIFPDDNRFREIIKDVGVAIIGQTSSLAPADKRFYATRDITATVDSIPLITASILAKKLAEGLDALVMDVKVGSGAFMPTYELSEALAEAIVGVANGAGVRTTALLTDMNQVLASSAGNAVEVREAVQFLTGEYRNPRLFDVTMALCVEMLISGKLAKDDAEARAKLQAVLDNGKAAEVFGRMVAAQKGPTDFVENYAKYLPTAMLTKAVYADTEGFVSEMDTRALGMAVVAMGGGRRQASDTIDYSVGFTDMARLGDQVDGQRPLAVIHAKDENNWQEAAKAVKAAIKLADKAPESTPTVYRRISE
Conditions: not given; call rule not given here
For `Clc1ccc2[nH]cc(C(c3ccc(-c4nnc(-c5ccncc5)o4)cc3)c3c[nH]c4ccc(Cl)cc34)c2c1`, the IC50 entry is “Not Active”.

Regarding `O=[N+]([O-])c1ccc(-c2nnc(-c3ccc(C(c4c[nH]c5ccc(Cl)cc45)c4c[nH]c5ccc(Cl)cc45)cc3)o2)cc1`, the IC50 result is given as “Not Active”.

For `Cc1ccc(-c2nnc(-c3ccc(C(c4c[nH]c5ccc(Cl)cc45)c4c[nH]c5ccc(Cl)cc45)cc3)o2)cc1`, the IC50 entry was “Not Active”.

As to `Cc1ccccc1-c1nnc(-c2ccc(C(c3c[nH]c4ccc(Cl)cc34)c3c[nH]c4ccc(Cl)cc34)cc2)o1`, the IC50 entry was “Not Active”.

As to `Cc1cccc(-c2nnc(-c3ccc(C(c4c[nH]c5ccc(Cl)cc45)c4c[nH]c5ccc(Cl)cc45)cc3)o2)c1`, the IC50 result is listed as “Not Active”.

Turning to `Clc1ccc2[nH]cc(C(c3ccc(-c4nnc(-c5cccnc5)o4)cc3)c3c[nH]c4ccc(Cl)cc34)c2c1`, the IC50 entry is reported as “Not Active”.

In the case of `O=[N+]([O-])c1cccc(-c2nnc(-c3ccc(C(c4c[nH]c5ccc(Cl)cc45)c4c[nH]c5ccc(Cl)cc45)cc3)o2)c1`, the IC50 result was “Not Active”.

The same assay, now with this note: read-out: IC50.
`Fc1cccc(-c2nnc(-c3ccc(C(c4c[nH]c5ccc(Cl)cc45)c4c[nH]c5ccc(Cl)cc45)cc3)o2)c1`: the IC50 is 29.4 µM.

As for `Fc1ccc(-c2nnc(-c3ccc(C(c4c[nH]c5ccc(Cl)cc45)c4c[nH]c5ccc(Cl)cc45)cc3)o2)cc1`, the IC50 stood at 9.1 µM.

As to `Oc1ccc(-c2nnc(-c3ccc(C(c4c[nH]c5ccc(Cl)cc45)c4c[nH]c5ccc(Cl)cc45)cc3)o2)cc1O`, the IC50 was 12.2 µM.

As to `Oc1cccc(-c2nnc(-c3ccc(C(c4c[nH]c5ccc(Cl)cc45)c4c[nH]c5ccc(Cl)cc45)cc3)o2)c1O`, the IC50 worked out at 9.3 µM.

For the compound `Clc1ccc2[nH]cc(C(c3ccc(-c4nnc(-c5ccccn5)o4)cc3)c3c[nH]c4ccc(Cl)cc34)c2c1`, the IC50 worked out at 38.4 µM.

Take `Fc1ccccc1-c1nnc(-c2ccc(C(c3c[nH]c4ccc(Cl)cc34)c3c[nH]c4ccc(Cl)cc34)cc2)o1`: the IC50 came to 17.3 µM.

As for `Oc1ccc(-c2nnc(-c3ccc(C(c4c[nH]c5ccc(Cl)cc45)c4c[nH]c5ccc(Cl)cc45)cc3)o2)cc1`, the IC50 came out at 24.5 µM.

As for `Oc1ccccc1-c1nnc(-c2ccc(C(c3c[nH]c4ccc(Cl)cc34)c3c[nH]c4ccc(Cl)cc34)cc2)o1`, the IC50 was found to be 43.5 µM.

As to `COc1ccc(O)c(-c2nnc(-c3ccc(C(c4c[nH]c5ccc(Cl)cc45)c4c[nH]c5ccc(Cl)cc45)cc3)o2)c1`, the 50% inhibitory concentration (IC50) worked out at 45.2 µM.

In the case of `Clc1ccc(-c2nnc(-c3ccc(C(c4c[nH]c5ccc(Cl)cc45)c4c[nH]c5ccc(Cl)cc45)cc3)o2)cc1`, the IC50 was 46.2 µM.

Regarding `Oc1cccc(-c2nnc(-c3ccc(C(c4c[nH]c5ccc(Cl)cc45)c4c[nH]c5ccc(Cl)cc45)cc3)o2)c1`, the half-inhibitory concentration (IC50) came to 53.5 µM.

On to `Clc1ccc2[nH]cc(C(c3ccc(-c4nnc(-c5ccccc5Cl)o4)cc3)c3c[nH]c4ccc(Cl)cc34)c2c1`, for which the IC50 worked out at 29.3 µM.

In the case of `COc1ccc(-c2nnc(-c3ccc(C(c4c[nH]c5ccc(Cl)cc45)c4c[nH]c5ccc(Cl)cc45)cc3)o2)cc1O`, the IC50 turned out to be 33.5 µM.

For `COc1ccc(-c2nnc(-c3ccc(C(c4c[nH]c5ccc(Cl)cc45)c4c[nH]c5ccc(Cl)cc45)cc3)o2)c(O)c1`, the IC50 stood at 35.2 µM.

As to `Oc1ccc(O)c(-c2nnc(-c3ccc(C(c4c[nH]c5ccc(Cl)cc45)c4c[nH]c5ccc(Cl)cc45)cc3)o2)c1`, the half-inhibitory concentration (IC50) was 6.1 µM.

`Oc1ccc(-c2nnc(-c3ccc(C(c4c[nH]c5ccc(Cl)cc45)c4c[nH]c5ccc(Cl)cc45)cc3)o2)c(O)c1`: the IC50 is 3.5 µM.

`Clc1cccc(-c2nnc(-c3ccc(C(c4c[nH]c5ccc(Cl)cc45)c4c[nH]c5ccc(Cl)cc45)cc3)o2)c1`: the half-inhibitory concentration (IC50) came out at 54.6 µM.

As to `O=[N+]([O-])c1ccccc1-c1nnc(-c2ccc(C(c3c[nH]c4ccc(Cl)cc34)c3c[nH]c4ccc(Cl)cc34)cc2)o1`, the IC50 was 64.2 µM.
